# Measurements taken from publication PMC8230474, “Synthesis of Novel Acyl Derivatives of 3-(4,5,6,7-Tetrabromo-1H-benzimidazol-1-yl)propan-1-ols—Intracellular TBBi-Based CK2 Inhibitors with Proapoptotic Properties” (International Journal of Molecular Sciences, 2021).
# Read-outs that look alike come from different tables or passages of the source.
# Assays:
# MDA-MB-231 cells [1] = test: MTT viability assay, MDA-MB-231; type: cell-based; conditions: Homo sapiens, read-out: EC50 ± SD MDA-MB-231
# Protocol: (§1) To test the anti-cancer effect of the TBBi derivatives, we treated the MCF-7 and MDA-MB-231 cells with the newly synthesized esters and previously reported compounds [34, 57] at the concentration range of 3.125 to 200 µM for 24 h, 48 h and 72 h. Additionally, the range of concentrations was extended by additional lower concentrations in MCF-7 for compound 4 with the minimum concentration of 0.195 µM. […] The EC50 values, describing the half maximal effective concentration of each tested compound, were calculated and are summarized in Table 2. […] We observed that the EC50 values increase in both cell lines with the elongation of fatty acids chain length in the tested compounds, thus strongly correlating with the decrease of their solubility in biological media as characterized by logS parameter (Table 2). The second reason for the decreased biological activity of the longer-chain aliphatic esters might be attributed to their greater resistance toward intracellular hydrolysis, which directly influences the slower release of the active form of the corresponding CK2 inhibitors. […] However, none of the tested compounds, except for compound 5, decreased the viability of both cell lines in a time-dependent manner (Figure 4).
# (§2) MCF-7 and MDA-MB-231 were cultured in high-glucose Dulbecco’s modified Eagle medium (DMEM, Lonza, Basel, Switzerland) supplemented with 10% fetal bovine serum (FBS, EuroClone, Siziano, Italy)), 2 mM L-glutamine, and antibiotics (100 U/mL penicillin, 100 µg/mL streptomycin) (Sigma-Aldrich Chemical Company (St. Louis, MO, USA). Cells were grown in 75-cm^2 cell culture flasks (Sarstedt, Nümbrecht, Germany) in a humidified atmosphere of CO2/air (5%/95%) at 37 °C. All the experiments were performed in exponentially growing cultures. Stock solutions of the test compounds were prepared in DMSO and stored in −80 °C for a maximum of one month. For the cytotoxicity studies, stock solutions of the tested compounds were diluted 200-fold with the proper culture medium to obtain the final concentrations.
# (§3) After incubation with the tested compounds, an MTT test was performed as described previously. Optical densities were measured at 570 nm using BioTek microplate reader (Winooski, VT, USA). All measurements were carried out in a minimum of three biological replicates.
# [2] = target: CK2 holoenzyme (CK2 α2β2) (Homo sapiens, UniProt P68400); test: Radiometric (P81 filter isotopic) kinase assay, CK2 holoenzyme; type: biochemical; conditions: read-out: Residual Activity of the Enzyme CK2 α2β2
# CK2 holoenzyme (CK2 α2β2), sequence (P68400 whole entry): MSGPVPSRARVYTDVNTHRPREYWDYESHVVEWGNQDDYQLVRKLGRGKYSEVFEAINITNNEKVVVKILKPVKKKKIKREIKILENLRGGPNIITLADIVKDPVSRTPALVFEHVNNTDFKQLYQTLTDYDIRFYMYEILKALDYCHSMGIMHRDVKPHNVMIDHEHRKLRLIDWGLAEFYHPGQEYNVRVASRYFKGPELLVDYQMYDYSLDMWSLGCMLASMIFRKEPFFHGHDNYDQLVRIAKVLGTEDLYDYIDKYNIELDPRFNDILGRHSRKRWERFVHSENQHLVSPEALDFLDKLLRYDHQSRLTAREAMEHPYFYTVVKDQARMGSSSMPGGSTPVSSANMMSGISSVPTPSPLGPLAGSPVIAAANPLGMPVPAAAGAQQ
# CK2 holoenzyme (CK2 α2β2), sequence (P67870 whole entry partner): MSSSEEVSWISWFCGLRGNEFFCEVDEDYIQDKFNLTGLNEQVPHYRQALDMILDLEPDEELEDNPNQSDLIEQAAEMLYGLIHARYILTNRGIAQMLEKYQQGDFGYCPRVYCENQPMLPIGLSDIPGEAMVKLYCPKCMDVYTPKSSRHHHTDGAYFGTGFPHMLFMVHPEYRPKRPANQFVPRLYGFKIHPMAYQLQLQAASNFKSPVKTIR
# [3] = target: human CK2 catalytic subunit (CK2α) (Homo sapiens, UniProt P68400); test: Radiometric (P81 filter isotopic) kinase assay, CK2 catalytic subunit; type: biochemical; conditions: read-out: Residual Activity of the Enzyme CK2α
# human CK2 catalytic subunit (CK2α), sequence (P68400 whole entry): as the sequence (P68400 whole entry) above
# MCF-7 cells [4] = test: MTT viability assay, MCF-7; type: cell-based; conditions: Homo sapiens, read-out: EC50 ± SD MCF-7
# Protocol: as §1, §2, §3
# PIM1 = PIM1 (Homo sapiens, UniProt P11309); test: Radiometric (P81 filter isotopic) kinase assay, PIM1; type: biochemical; conditions: for Ki: calculated from IC50 by Cheng and Prusoff equation; for remaining activity at 5 µM / remaining activity at 10 µM: read-out: Residual Activity of the Enzyme PIM1
# PIM1, sequence (P11309 whole entry, species assumed): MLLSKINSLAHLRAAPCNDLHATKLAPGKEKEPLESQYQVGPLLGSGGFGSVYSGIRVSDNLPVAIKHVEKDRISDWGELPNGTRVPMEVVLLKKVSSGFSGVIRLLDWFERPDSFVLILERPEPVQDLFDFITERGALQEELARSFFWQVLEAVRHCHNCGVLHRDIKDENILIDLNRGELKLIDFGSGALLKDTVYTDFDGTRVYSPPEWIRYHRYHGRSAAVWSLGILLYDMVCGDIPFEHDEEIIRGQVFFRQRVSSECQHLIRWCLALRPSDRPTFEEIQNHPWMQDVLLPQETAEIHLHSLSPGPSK
# MCF-7 cells [5] = test: Annexin V-FITC/PI flow cytometry, MCF-7; type: cell-based, human; conditions: MCF-7, 72 h treatment, compound at its EC50
# Protocol: Additionally, assaying annexin V-binding to phosphatidylserine by means of flow cytometry confirmed that derivatives 3c and 6a–c induced apoptosis in both cell lines (Figure 9, Figure S3).
# MCF-7 cells were seeded in six-well plates at 1.5 × 10^5 cells/well. […] Then, the plates were incubated for 24 h or 72 h. After exposure to the examined compounds, the floating cells were collected, and monolayer cell culture was trypsinized. The cells were centrifugated at 200× g at 4 °C for 5 min, washed twice in cold phosphate-buffered saline (PBS), and subsequently suspended in binding buffer at 1 × 10^6 cells/mL. Subsequently, 100-μL aliquots of the cell suspension were labeled according to the kit manufacturer’s instructions. Briefly, annexin V-fluorescein isothiocyanate and propidium iodide (BD Biosciences, Pharmingen, San Diego, CA, USA) were added to the cell suspension, and the mixture was vortexed and then incubated for 15 min at RT in the dark. A cold binding buffer (900 μL) was then added and the cells were vortexed again and kept on ice. Flow cytometric measurements were performed within 1 h after labeling. Viable, necrotic, early, and late apoptotic cells were detected by flow cytometry using CyFlow Cube 8 (Sysmex, Norderstedt, Germany) flow cytometer.
# MCF-7 cells [6] = test: Cell cycle progression by flow cytometry, MCF-7; type: cell-based, human; conditions: MCF-7, 72 h, compound at its EC50
# [7] = tested on: protein kinase CK2 in MCF-7 cells; test: Intracellular inhibition of CK2, Western blot of p-Ser529 p65 and p-Ser129 Akt1, MCF-7; type: cell-based, human
# Text: (§4) We observed an inhibition of CK2 in both cell lines; however, the lower efficiency of CK2 inhibition was detected in MCF-7 considering the extent of Akt1 phosphorylation. The relative level of the phosphorylation of the tested proteins in MDA-MB-231 cells was in the range of 0.32 to 0.80 for p-Ser529 p65 and 0.41 to 0.73 for p-Ser129 Akt1, whereas in MCF-7 cells it was in the range of 0.33 to 0.78 for p-Ser529 p65 and 0.82 to 1.23 for p-Ser129 Akt1, respectively. The lowest phosphorylation levels of the tested proteins were detected in MDA-MB-231 cells for compound 6b with the relative level of 0.41 for Ser129 Akt1 as well as for compound 6c with the relative level of 0.32 for p-Ser529 p65. Among the tested proteins, the lowest extent of phosphorylation in MCF-7 cells was detected for 6b with the relative level of 0.33 for p-Ser529 p65, and for 6a with the relative level of 0.82 for Ser129 Akt1.
# Considering an inefficient inhibition of CK2 in MCF-7, we evaluated an inhibition of CK2 in this cell line after 72 h. […] The relative levels were in the range of 0.17 to 0.8 for p-Ser529 p65 and 0.19 to 0.79 for p-Ser129 Akt1.
# The MCF-7 cells growing exponentially were seeded at 4.8 × 10^5 cells in 6-cm-diameter plates. Subsequently, compounds were added in a final concentration of 0.5% DMSO. After incubation, floating cells were collected and cell monolayer was washed three times in ice-cold PBS and the cells were scraped, combined with floating cells and lysed in RIPA buffer consisting of 50 mM Tris-HCl (pH 7.4), 1% NP-40, 0.5% sodium deoxycholate, 0.1% SDS, 150 mM NaCl, 2 mM EDTA, 50 mM NaF, 0.2 mM sodium orthovanadate, and protease inhibitors cocktail. Subsequently, cells were sonicated (three times for 15 s), centrifuged at 20,000× g for 15 min at 4 °C, and the supernatants were collected and stored at −80 °C. The protein concentration was determined using Bradford assay. Then, supernatants were incubated with the Laemmli buffer for 5 min at 98 °C. Equal amounts of total protein (10 to 20 μg) were analyzed by SDS-PAGE, and subsequently, Western blotting was performed using primary antibodies in blocking buffer containing either 3% BSA (bovine serum albumin) or 3% milk in TBS-T (Tris-buffered saline (10 mM Tris-HCl (pH 8), 150 mM NaCl) containing 0.1% Tween 20 or 0.2% Triton X-100) for 1 h. After overnight incubation at 4 °C with the primary antibodies, the membranes were washed with TBS-T and probed with the respective secondary antibodies. The ECL substrate was used for detection and immunoblots were scanned using G Box Chemi (Syngene, Cambridge, UK) with GeneSys software (Syngene, Cambridge, UK) or were developed with the use of X-rays films. UV-irradiated Jurkat cells were used as a positive control in Western blot analysis of c-PARP1. After 2 h, one-minute UV-irradiated Jurkat leukemic T-cell line was lysed and subjected to analysis.
# For densitometry, immunoblots were quantified using the Fiji distribution of the ImageJ 1.52a software (National Institutes of Health, Bethesda, MD, USA, and the University of Wisconsin, Madison, WI, USA). Phosphorylated protein densities were normalized to GAPDH densities, assuming 1 for untreated cells and then they were converted to a percent of the appropriate control.
# MDA-MB-231 cells [8] = test: Cleaved PARP1 Western blot, MDA-MB-231; type: cell-based, human; conditions: MDA-MB-231, 24-h treatment, compound at its EC50, untreated cells = one relative unit
# [9] = tested on: protein kinase CK2 in MDA-MB-231 cells; test: Intracellular inhibition of CK2, Western blot of p-Ser529 p65 and p-Ser129 Akt1, MDA-MB-231; type: cell-based, human; conditions: MDA-MB-231, 24 h treatment, compound at its 72-h EC50, relative to untreated control
# Text: as §4
# The MCF-7 cells growing exponentially were seeded at 4.8 × 10^5 cells in 6-cm-diameter plates. Subsequently, compounds were added in a final concentration of 0.5% DMSO. […] The protein concentration was determined using Bradford assay. […]
# For densitometry, immunoblots were quantified using the Fiji distribution of the ImageJ 1.52a software (National Institutes of Health, Bethesda, MD, USA, and the University of Wisconsin, Madison, WI, USA). […]
# [10] = parameters: method as in PMID 8876860, PMID 9760686; conditions: higher than the parent anti-herpesvirus agent; cited from earlier work
# [11] = MCF-7, 72 h treatment, compound at its EC50, relative to untreated control
SMILES,EC50 (MDA-MB-231 cells [1]; 24 h) [µM],EC50 (MDA-MB-231 cells [1]; 48 h) [µM],EC50 (MDA-MB-231 cells [1]; 72 h) [µM],"EC50 (MCF-7 cells [4]; MCF7, 24 h) [µM]","EC50 (MCF-7 cells [4]; MCF7, 48 h) [µM]","EC50 (MCF-7 cells [4]; MCF7, 72 h) [µM]",Ki (PIM1) [µM],cells in G1 (MCF-7 cells [6]) [%],cells in G2M (MCF-7 cells [6]) [%],cells in S (MCF-7 cells [6]) [%],remaining activity at 5 µM ([2]; 5 µM compound) [%],remaining activity at 10 µM ([2]; 10 µM compound) [%],remaining activity at 5 µM ([3]; 5 µM compound) [%],remaining activity at 10 µM ([3]; 10 µM compound) [%],remaining activity at 5 µM (PIM1; 5 µM compound) [%],remaining activity at 10 µM (PIM1; 10 µM compound) [%],melting point [°C],other results
"Brc1c(Br)c(Br)c2[nH]cnc2c1Br [Compound 1, 4,5,6,7-tetrabromo-1H-benzimidazole, reference compound]",51.9 ± 14.4,25.1 ± 2.04,24.9 ± 0.25,20.8 ± 1.49,18.8 ± 1.6,16.9 ± 1.36,0.27,57.7,17.2,25.1,,,,,,,,remaining activity at 5 µM [2]: 9.6 ± 2.6%; remaining activity at 10 µM [2]: 5 ± 1.2%; remaining activity at 5 µM [3]: 19.3 ± 0.2%; remaining activity at 10 µM [3]: 12.4 ± 0.1%; remaining activity at 5 µM (PIM1): 11.2 ± 0.2%; remaining activity at 10 µM (PIM1): 5.7 ± 0.5%; necrotic cells (of total cells) (MCF-7 cells [5]): 25%
"CCCC(=O)OCCCn1c(C)nc2c(Br)c(Br)c(Br)c(Br)c21 [Compound 6a, 3-(4,5,6,7-Tetrabromo-2-methyl-1H-benzimidazol-1-yl)propyl butanoate]",52.2 ± 11.7,20.5 ± 1.97,16.9 ± 4.07,20.2 ± 1.74,18.1 ± 0.52,16.5 ± 1.13,1.94 ± 0.16,56.3,18.5,25.2,75.6 ± 5.9,49.6 ± 0.8,81.5 ± 8,68.4 ± 9.8,38.8 ± 3.1,19 ± 0.1,81 to 82,"relative level of p-Ser129 Akt1 ([7]; MCF-7, 24 h treatment, compound at its 72-h EC50, relative to untreated control): 0.82; relative level of p-Ser129 Akt1 [7, 11]: 0.30; relative level of p-Ser529 p65 [7, 11]: 0.19"
"CCCCCCCC(=O)OCCCn1c(C)nc2c(Br)c(Br)c(Br)c(Br)c21 [Compound 6c, 3-(4,5,6,7-Tetrabromo-2-methyl-1H-benzimidazol-1-yl)propyl octanoate]",61.3 ± 2.23,29.8 ± 9.85,21.3 ± 2.24,25.6 ± 12.3,20.5 ± 2.92,14.8 ± 2.14,,58.9,13.4,27.7,90.2 ± 4.7,80.8 ± 1.9,89.9 ± 5.2,84.3 ± 10.4,95.2 ± 9.4,79.8 ± 8.6,61 to 65,relative level of c-PARP1 (MDA-MB-231 cells [8]): 7.14; relative level of p-Ser529 p65 [9]: 0.32
CC(=O)OCC(CCn1cnc2cnc(N)nc21)COC(C)=O [famciclovir],,,,,,,,,,,,,,,,,,bioavailability relative to parent penciclovir [10]: 15 fold
